Results from PubChem BioAssay (NCI).
Several values for one entry are separate records, joined by “and”; a condition that tells them apart may be missing. Equal values may be shown once.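 Compound exposure: 48 hours, 5 concentrations, 96-well plates. Abbreviation: GI50, concentration required for 50% inhibition of growth. At the TGI there is no net growth.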

Key:
Assay in all cases: inhibition of tumour cell growth, NCI panel, 48 h
OVCAR-3 ovarian = test system: OVCAR-3 ovarian
IGROV1 ovarian = test system: IGROV1 ovarian
HS 578T breast = test system: HS 578T breast
SR leukemia = test system: SR leukemia
KM12 colon = test system: KM12 colon
786-0 renal = test system: 786-0 renal
MDA-MB-435 = test system: MDA-MB-435
SF-295 CNS = test system: SF-295 CNS
OVCAR-5 ovarian = test system: OVCAR-5 ovarian
NCI-H522 lung = test system: NCI-H522 lung

Row | Compound | GI50 (OVCAR-3 ovarian) [µM] | TGI (OVCAR-3 ovarian) | GI50 (IGROV1 ovarian) [µM] | TGI (IGROV1 ovarian) | GI50 (HS 578T breast) [µM] | TGI (HS 578T breast) | GI50 (SR leukemia) | TGI (SR leukemia) [µM] | GI50 (KM12 colon) [µM] | TGI (KM12 colon) | GI50 (786-0 renal) [µM] | TGI (786-0 renal) [µM] | GI50 (MDA-MB-435) [µM] | TGI (MDA-MB-435) | GI50 (SF-295 CNS) [µM] | TGI (SF-295 CNS) | GI50 (OVCAR-5 ovarian) [µM] | TGI (OVCAR-5 ovarian) | GI50 (NCI-H522 lung) [µM] | TGI (NCI-H522 lung) [µM]
1 | O=C(Nc1ccc(-n2cc(-c3ccncc3)c(-c3ccc(Cl)c(O)c3)n2)cc1)c1ccc(Cl)c(Cl)c1 | > 100 | > 100 µM | > 100 | > 100 µM | 3.83 | > 100 µM | 3.6 µM | > 100 | 3.05 | > 100 µM | 1.78 | 4.3 | 2.73 | > 100 µM | 1.01 | 2.77 µM | 10.2 | > 100 µM | 5.34 | > 100
2 | CC[C@]1(O)C[C@@H]2CN(CCc3c([nH]c4ccccc34)[C@@](C(=O)OC)(c3cc4c(cc3OC)N(C)[C@H]3[C@@](O)(C(=O)OC)[C@H](OC(=O)CCCBr)[C@]5(CC)C=CCN6CC[C@]43[C@@H]65)C2)C1 | < 0.01 | < 0.0126 µM | 0.0263 | > 100 µM | < 0.0185 | – | < 0.01 µM | > 100 | < 0.0163 | 3.84 µM | 0.0535 | > 33.1 | < 0.01 | < 0.01 µM | – | – | < 0.023 | > 100 µM | – | –
3 | CCCCCCCC(=O)OC[n+]1cccc(-c2c(COC(=O)NC(C)C)c(COC(=O)NC(C)C)c3n2CCC3)c1 | – | > 100 µM | – | > 100 µM | – | > 100 µM | – | > 100 | – | > 100 µM | – | > 100 | – | > 100 µM | – | > 100 µM | – | > 100 µM | – | > 100
4 | c1ccc2[nH]c(-c3cscn3)nc2c1 | – | > 100 µM | – | > 100 µM | – | > 100 µM | > 100 µM and 38.7 µM | > 100 | – | > 100 µM | – | > 100 | – | > 100 µM | – | > 100 µM | – | > 100 µM | – | > 100
5 | COc1cc([N+](=O)[O-])c(S(=O)(=O)O)cc1-[n+]1nc(C(=O)Nc2ccccc2)nn1-c1ccc([N+](=O)[O-])c(S(=O)(=O)[O-])c1 | – | > 100 µM | – | > 100 µM | – | > 100 µM | – | > 100 | – | > 100 µM | – | > 100 | – | > 100 µM | – | > 100 µM | – | > 100 µM | – | > 100
6 | COc1ccc(-c2nn(-c3cccc(Cl)c3)cc2-c2c(C#N)c(=O)n3[nH]c(-c4ccc(C)o4)nc3c2C#N)cc1 | 5.68 | 19 µM | 2.6 | 18.5 µM | 2.95 | > 50 µM | 4.22 µM | 22.1 | 3.54 | > 50 µM | 9.42 | > 50 | 4.44 | 30.1 µM | 3.46 | > 50 µM | 13.6 | > 50 µM | 4.96 | 23.1
7 | CCCC/C=C1/CCC(CN(C)C)C1=O (stereo not drawn) | – | 3.72 µM | – | 10.1 µM | – | 15 µM | – | 2.99 | – | 2.31 µM | – | 2.9 | – | 23.1 µM | – | 13 µM | 0.0971 | 12.3 µM | – | 1.39
8 | Fc1cccc(C2ON=C(c3ccccc3)N2C23CC4CC(CC(C4)C2)C3)c1 (stereo not drawn) | – | > 10 µM | – | > 10 µM | – | > 10 µM | – | > 10 | – | > 10 µM | – | > 10 | – | > 10 µM | – | > 10 µM | – | > 10 µM | – | > 10
9 | CC(=O)Nc1ccc2c(c1)[nH]c(=O)c1cc(Cl)ccc12 | – | – | – | > 100 µM | – | > 100 µM | – | 18.4 | – | > 100 µM | – | > 100 | – | > 100 µM | – | > 100 µM | – | > 100 µM | – | > 100
10 | NCC[PH+](c1ccccc1)c1ccccc1.NCC[PH+](c1ccccc1)c1ccccc1.[Cl-].[Pt+4] | > 100 | > 100 µM | 29.3 | > 100 µM | 99.6 | > 100 µM | 29.7 µM | > 100 | > 100 | > 100 µM | > 100 | > 100 | > 100 | > 100 µM | > 100 | > 100 µM | > 100 | > 100 µM | > 87.1 | > 100
11 | COc1cc(-c2ccc[nH]2)[nH]c1/C=C1\N=C(C)C(C(=O)NC(C)C)=C1C | 3.03 | 14.2 µM | 4.81 | 25.4 µM | 2.84 | 10.5 µM | 2.17 µM | 7.87 | 1.93 | 13.7 µM | 2.9 | 11.7 | 4.51 | 19.5 µM | 2.9 | 11.4 µM | 2.97 | 17.3 µM | 2.15 | 6.65
12 | COc1ccc2cc1Oc1ccc(cc1)CC1c3c(cc(OC)c4c3Oc3cc5c(cc3O4)CCNC5C2)CCN1C (stereo not drawn) | 1.62 | 7.41 µM and 3.07 µM | 1.47 | 3.41 µM and 2.82 µM | 1.98 | 4.71 µM and 4.59 µM | – | 2.51 | 1.46 | 3.33 µM and 2.85 µM | 2.17 | 3.72 | 1.56 | 3.43 µM and 2.9 µM | 1.8 | 3.42 µM and 3.23 µM | 1.98 | 15.1 µM and 3.46 µM | – | 3.27
13 | CN(Cc1cnc2nc(N)nc(N)c2n1)c1c(Cl)cc(C(=O)NC(CCC(=O)O)C(=O)O)cc1Br (stereo not drawn) | < 0.01 | > 100 µM | < 0.01 | 18.2 µM | 17.8 | > 100 µM | < 0.01 µM | > 100 | < 0.01 | > 100 µM | < 0.01 | > 100 | < 0.01 | > 100 µM | < 0.01 | – | 0.127 | > 100 µM | 0.0391 | > 100
14 | CCCCCCC1CCCCN1C(c1ccccc1)C(O)c1ccccc1 (stereo not drawn) | 8.49 | 20.8 µM | 8.62 | 22 µM | 6.68 | 21.1 µM | 2.94 µM | 8.54 | 6.07 | 19.4 µM | 3.97 | 13.6 | 4.71 | 19.2 µM | 4.31 | 18.4 µM | 10.1 | 22 µM | 5.1 | 18.5
15 | Cc1ncc([N+](=O)[O-])n1CCOc1ccc(C(=O)/C=C/c2ccc(C(F)(F)F)cc2)cc1 | 2.37 | 5.7 µM | 2 | 4.13 µM | 5.2 | 33.3 µM | 1.97 µM | 5.5 | 2.01 | 4.22 µM | 1.87 | 3.54 | 3.56 | 13.9 µM | 3.47 | 13.8 µM | 2.93 | 14.4 µM | 2.55 | 7.74
